Consider four molecules from publication PMC9175492 (Molecular pharmaceutics, 2022).

Numbered stars: 1 amine (or outer) side, 2 acyl side, 3 side chain; on linkers, the order of the positions; unused ones are H or OH. Bridge positions count the residues as written; N and C are the ends. Square brackets hold non-standard residues; d marks the D form. Peptide text beside a SMILES is read from it. I, II: the chains in the order shown. X2 = NC(=O)[C@H](CCCCNC(=O)COCCOCCN[*:1])N[*:2]; 2Nal = N[C@@H](Cc1ccc2ccccc2c1)C(=O)O; Bta = N[C@@H](Cc1csc2ccccc12)C(=O)O

The test system of series [1] is HeLa cells. In words: MTT cell viability assay. In kind it is cell-based, human. As to conditions: 72 h, DMEM 10% FBS. Background: Tetrazolium assays rely on reduction of a dye to a coloured formazan, in cell work by metabolically active cells.
For series [2] the following is noted: ratio of cytosolic versus extracellular concentration; cited from earlier work.
The test system of series [3] is HeLa (human cervical cancer) cells. The following applies: 10% fetal bovine serum; cited from earlier work.
For series [4], the system named is HeLa cells. Description: Apparent endosomal escape efficiency. It is filed as cell-based, human. The following applies: reference line, 10% or 1% FBS; defined as 100%.
In series [5] the test system is intracellular Keap1-Nrf2 interaction, ARE reporter-HepG2 cells. In words: ARE luciferase reporter assay. In kind it is cell-based. The following applies: 18 h, 0% FBS, n = 5; for Increase of luciferase activity: 0.31 μM; for Maximal induction of luciferase expression: highest concentration tested (5 μM). (Reporter assays use an easily measured gene product as a stand-in for the process of interest.)

Regarding `N=C(N)NCCC[C@@H]1NC(=O)[C@H](Cc2ccc3ccccc3c2)NC(=O)[C@@H](Cc2ccccc2)NC(=O)[C@H](Cc2ccccc2)NC(=O)[C@H](CCC(N)=O)NC(=O)[C@@H](CCCNC(=N)N)NC(=O)[C@H](CCCNC(=N)N)NC(=O)[C@@H](CCCNC(=N)N)NC1=O` [CPP12, cyclo(Phe-D-Phe-Nal-Arg-D-Arg-Arg-D-Arg-Gln)] (cyclo([2Nal]R[dR]R[dR]QF[dF])), the “Loss of viability of HeLa cells (MTT)” value in series [1] (at ⩾550 μM concentration (so in the source)) is listed as ~ 40%. In addition, in series [1] (up to 25 μM), the “Viability of HeLa cells (MTT)” value is given as “did not reduce the viability”. Besides, the Cytosolic entry efficiency in series [2] is recorded as 120%. In addition, the “Decrease of cytosolic entry efficiency in the presence of 10% FBS” value in series [3] is listed as 25 fold. The “Apparent Endosomal Escape Efficiency (γ, %)” value in series [4] is reported as 100%.
Take `CC(C)C[C@@H]1NC(=O)[C@H](Cc2ccccc2)NC(=O)[C@H](CCC(=O)O)NC(=O)CNC(=O)[C@H]([C@@H](C)O)NC(=O)[C@H](CCC(=O)O)NC(=O)[C@@H]2CCCN2C(=O)[C@H](CC(=O)O)NC(=O)[C@H](CC(C)C)NC(=O)[C@H](CCC(=O)NCCOCCOCC(=O)NCCCC[C@H](NC(=O)CC[C@@H]2NC(=O)[C@@H](CCCNC(=N)N)NC(=O)[C@H](CCCNC(=N)N)NC(=O)[C@@H](CCCNC(=N)N)NC(=O)[C@H](CCCNC(=N)N)NC(=O)[C@H](Cc3csc4ccccc34)NC(=O)[C@@H](Cc3ccccc3)NC(=O)[C@H](Cc3ccccc3)NC2=O)C(N)=O)NC(=O)CNC1=O` [CPP12-2-P1] (I: cyclo(FLGELDPETGE) / II: cyclo(F[dF][Bta]R[dR]R[dR]E); linker I:4-II:8 via X2): in series [5], the “Increase of luciferase activity” value is given as ~ 2 fold and the “Maximal induction of luciferase expression” value is reported as “three- to four-fold”.
For the molecule `CC(C)C[C@@H]1NC(=O)[C@H](Cc2ccccc2)NC(=O)[C@H](CCC(=O)O)NC(=O)CNC(=O)[C@H]([C@@H](C)O)NC(=O)[C@H](CCC(=O)O)NC(=O)[C@@H]2CCCN2C(=O)[C@H](CC(=O)O)NC(=O)[C@H](CC(C)C)NC(=O)[C@H](CCC(=O)NCCOCCOCC(=O)NCCCC[C@H](NC(=O)CC[C@@H]2NC(=O)[C@@H](CCCNC(=N)N)NC(=O)[C@H](CCCNC(=N)N)NC(=O)[C@@H](CCCNC(=N)N)NC(=O)[C@H](CCCNC(=N)N)NC(=O)[C@H](Cc3ccc4ccccc4c3)NC(=O)[C@@H](Cc3ccccc3)NC(=O)[C@H](Cc3ccccc3)NC2=O)C(N)=O)NC(=O)CNC1=O` [CPP12-P1] (I: cyclo(FLGELDPETGE) / II: cyclo(F[dF][2Nal]R[dR]R[dR]E); linker I:4-II:8 via X2), in series [5], the “Increase of luciferase activity” value is “did not have significant effect” and the “Maximal induction of luciferase expression” value is recorded as “three- to four-fold”.
As to `CC(C)C[C@@H]1NC(=O)[C@H](Cc2ccccc2)NC(=O)[C@H](CCC(=O)O)NC(=O)CNC(=O)[C@H]([C@@H](C)O)NC(=O)[C@H](CCC(=O)O)NC(=O)[C@@H]2CCCN2C(=O)[C@H](CC(=O)O)NC(=O)[C@H](CC(C)C)NC(=O)[C@H](CCC(N)=O)NC(=O)CNC1=O` [Peptide P1], in series [5] (up to 5 μM), the “Increase in luciferase activity” value was “did not result in significant increase”.
